# Source: article doi:10.1101/350942v2 (biorxiv, 2018)
# Molecular target: Tv2483 (Treponema vincentii, UniProt S3MDF0, R115A)
# Test: biochemical
structure (smiles),measurement,value
N=C(N)NCCC[C@H](N)C(=O)O [L-arginine],Kd,6.3 µM
